Several values for one entry are separate records, joined by “and”; a condition that tells them apart may be missing. Identical values can stand only once. Counter-ions that a name gives are not always drawn. Like-named read-outs stand apart in the source and are kept apart here.
Columns and labels:
gastric cancer cells = test: Summary of cell viability, gastric cancer cells; assay type: cell-based; settings: 72 hours, read-out: Inhibitory effect
Method: (§1) The cell numbers were counted and reseed as 2×10^6 in culture plate/flask. Then, the culture medium were added to a volume of 10 ml, and the cells were cultured for 2-3 days. Then, the cells were suspended for loading into 96-well plates. The number of cells was 3000 and the volume of the culture medium was 100 μl each well.
(§2) Removing the original culture medium from 96-well plate. Then add 100 μl of commercially drug at a concentration of 10 μM per well. After 72 hours, add the diluted WST-1 reagent to the well with 100 μl/well, and the diluted WST-1 reagent was acquired from the dilution of 9:1 medium and WST-1 stock reagent. Finally, the total volume of each well was 200 μl/well. Culture the 96-well plate at 37° C. for 30 to 90 minutes. Detecting and calculate the survival rate of each cancer cells with an ELISA reader at OD450 nm. The lower viability of cancer cells represents better inhibition effect via the Cinacalcet HCl drug. Otherwise, the higher viability of cancer cells represents worse inhibition effect via the Cinacalcet HCl drug.
(§3) Cinacalcet HCl is having different inhibitory effect on different tumor cell type even in the same cancer. […] (FIG. 1)

colorectal cancer cells = test: Summary of cell viability, colorectal cancer cells; assay type: cell-based; settings: 72 hours, read-out: Inhibitory effect
Method: as §1, §2, §3

A549 = test: Cell viability analysis (WST-1), A549; assay type: cell-based; settings: Homo sapiens, read-out: survival rate (viability) of cells
Method: as §1, §2
(§4) This inhibition test of Cinacalcet HCl on pleural-related cancer cells were using two lung cancer cell lines A549 and H1650. The inhibitory tests of Cinacalcet HCl were performed 4 times for each cell lines and then the average value of the inhibitory tests was calculated.

T24 = test: Cell viability analysis (WST-1), T24; assay type: cell-based; settings: Homo sapiens, read-out: survival rate (viability) of cells
Method: as §1, §2
This inhibition test of Cinacalcet HCl on abdominal-related cancer cells were using bladder cancer cell line TSGH and T24 (Table 3), cervical cancer cell lines HeLa and C-33A (Table 4), renal cancer cell line 786-O (Table 5). The inhibitory tests of Cinacalcet HCl were performed 4 times for each cell lines and then the average value of the inhibitory tests was calculated.

hepatic cancer cells = test: Summary of cell viability, hepatic cancer cells; assay type: cell-based; settings: 72 hours, read-out: Inhibitory effect
Method: as §1, §2, §3

LoVo = test: Cell viability analysis (WST-1), LoVo; assay type: cell-based; settings: Homo sapiens, read-out: survival rate (viability) of cells
Method: as §1, §2
(§5) This inhibition test of Cinacalcet HCl on gastrointestinal tract-related cancer cells were using gastric cancer cell lines AGS and MKN-45 (Table 9), hepatic cancer cell lines HepG2 and Hep3B (Table 10), colorectal cancer cell lines HCT116-wt and LoVo (Table 11), pancreatic cancer cell line AsPC-1 and BxPC-3(Table 12), tongue cancer cell line SAS (Table 13). The inhibitory tests of Cinacalcet HCl were performed 4 times for each cell lines and then the average value of the inhibitory tests was calculated.

skin cancer cells = test: Summary of cell viability, skin cancer cells; assay type: cell-based; settings: 72 hours, read-out: Inhibitory effect
Method: as §1, §2, §3

lung cancer cells = test: Summary of cell viability, lung cancer cells; assay type: cell-based; settings: 72 hours, read-out: Inhibitory effect
Method: as §1, §2, §3

[1] = Animal model test of gastric cancer, body weight and health status; assay type: in vivo, mice; settings: for weight: single mice A, B, C, hydrochloride
Method: In this invention, the female mice were(BALB/cAnN.Cg-Foxnl™/CrlNarl) and purchased from National Laboratory Animal Center (Taiwan). The weight of the mice were 21±1 g. These mice were subcutaneously injected with gastric cancer cells (AGS) and then put these mice into different cages at random. The drug test experiment was divided into three groups, include “control group”, “low dose group (100 mg/kg/day)”, “high dose group (200 mg/kg/day)”. These mice were then injected test drug intraperitoneally once daily […]. The tumor sizes and body weight were measured twice a week. The tumor sizes were measured and calculated by formula: (L×W^2)/2. L represents the tumor longest length. W represents the tumor shortest diameter.

AGS = test: Cell viability analysis (WST-1), AGS; assay type: cell-based; settings: Homo sapiens, read-out: survival rate (viability) of cells
Method: as §1, §2, §5

various cancer cells = test: Inhibitory effect on various cancer cells; assay type: cell-based; settings: FIG. 1
Method: as §2, §3

[2] = Cell viability analysis (WST-1), normal kidney cell line HEK293; assay type: cell-based; settings: human, HEK293 cells (normal kidney cell line)
Method: as §1
as §2, with “Otherwise, the higher viability of cancer cells represents worse inhibition effect via the Cinacalcet HCl drug.” left out
This inhibition test of Cinacalcet HCl on normal cells were using normal kidney cell line HEK293 (Table 16), normal pulmonary epithelial cell lines […] BEAS-2B (Table 17). The inhibitory tests of Cinacalcet HCl were performed 4 times for each cell lines and then the average value of the inhibitory tests was calculated The results were shown in Tables 16 and Tables 17.

H1650 = test: Cell viability analysis (WST-1), H1650; assay type: cell-based; settings: Homo sapiens, read-out: survival rate (viability) of cells
Method: as §1
as §2, with “Culture the 96-well plate at 37° C. for 30 to 90 minutes.” left out
as §4

pancreatic cancer cells = test: Summary of cell viability, pancreatic cancer cells; assay type: cell-based; settings: 72 hours, read-out: Inhibitory effect
Method: as §1, §2, §3

Q: With C[C@@H](NCCCc1cccc(C(F)(F)F)c1)c1cccc2ccccc12 [Cinacalcet HCl, Cinacalcet hydrochloride] as the compound, how does the viability at 10 µM (gastric cancer cells) read?
A: Its viability at 10 µM is 123%.

Q: And the viability at 10 µM (colorectal cancer cells)?
A: The viability at 10 µM was 74.4%.

Q: And the viability at 10 µM (A549; A549, 10 μM, 72 hours, test 0524-10 min)?
A: Its viability at 10 µM is 87.7%.

Q: And the viability at 10 µM (A549; A549, 10 μM, 72 hours, test 0526-10 min)?
A: The viability at 10 µM was 103%.

Q: What about the viability at 10 µM (A549; A549, 10 μM, 72 hours, test 0529-10 min) of the same compound?
A: The viability at 10 µM was 75.5%.

Q: What about the viability at 10 µM (A549; A549, 10 μM, 72 hours, test 0531-10 min) of the same compound?
A: The viability at 10 µM was 92.6%.

Q: And the viability at 10 µM (A549; A549, 72 h, 10 μM, Average of tests)?
A: Its viability at 10 µM is 89.6%.

Q: What about the viability at 10 µM (T24; T-24, 10 μM, 72 hours, test T24-1-30 min) of the same compound?
A: Its viability at 10 µM is 71.1%.

Q: What about the viability at 10 µM (T24; T-24, 10 μM, 72 hours, test T24-2-20 min) of the same compound?
A: The viability at 10 µM was 133%.

Q: And the viability at 10 µM (T24; T-24, 10 μM, 72 hours, test T24-3-20 min)?
A: Its viability at 10 µM is 177%.

Q: What about the viability at 10 µM (T24; T-24, 10 μM, 72 hours, test T24-4-20 min) of the same compound?
A: Its viability at 10 µM is 103%.

Q: And the viability at 10 µM (T24; T-24, 72 h, 10 μM, average of tests)?
A: Its viability at 10 µM is 121%.

Q: And the viability at 10 µM (hepatic cancer cells)?
A: Its viability at 10 µM is 102%.

Q: And the viability at 10 µM (LoVo; 72 h, average of tests)?
A: The viability at 10 µM was 93.4%.

Q: And the viability at 10 µM (LoVo; 72 hours, test 0616-10 min)?
A: The viability at 10 µM was 73.9%.

Q: And the viability at 10 µM (LoVo; 72 hours, test 0619-10 min)?
A: The viability at 10 µM was 125%.

Q: What about the viability at 10 µM (LoVo; 72 hours, test 0621-10 min) of the same compound?
A: Its viability at 10 µM is 90.4%.

Q: And the viability at 10 µM (LoVo; 72 hours, test 0623-10 min)?
A: Its viability at 10 µM is 84.2%.

Q: And the viability at 10 µM (skin cancer cells)?
A: The viability at 10 µM was 80%.

Q: What about the viability at 10 µM (lung cancer cells) of the same compound?
A: The viability at 10 µM was 83.1%.

Q: What about the weight ([1]; Low dose (100 mg/kg/day) intraperitoneally, First measurement, 100 mg/kg/day) of the same compound?
A: Its weight is 20 g and 16 g and 21 g.

Q: And the weight ([1]; Low dose (100 mg/kg/day) intraperitoneally, Fourth measurement, 100 mg/kg/day)?
A: Its weight is 22 g and 23 g.

Q: What about the weight ([1]; Low dose (100 mg/kg/day) intraperitoneally, Second measurement, 100 mg/kg/day) of the same compound?
A: Its weight is 21 g and 22 g and 19 g.

Q: What about the weight ([1]; Low dose (100 mg/kg/day) intraperitoneally, Third measurement, 100 mg/kg/day) of the same compound?
A: The weight was 23.5 g and 21 g.

Q: And the “health status / death of tested mice during the treatment” value ([1]; both high and low doses)?
A: The value was “without death”.

Q: And the “weight of mice during the experiment” value ([1]; both low dose and high dose)?
A: The value was “did not show a significant decrease”.

Q: And the weight ([1]; high dose (200 mg/kg/day) intraperitoneally, Fourth measurement, 200 mg/kg/day)?
A: Its weight is 23 g and 20 g.

Q: What about the weight ([1]; high dose (200 mg/kg/day) intraperitoneally, Second measurement, 200 mg/kg/day) of the same compound?
A: The weight was 18.5 g and 21 g and 19 g.

Q: And the weight ([1]; high dose (200 mg/kg/day) intraperitoneally, Third measurement, 200 mg/kg/day)?
A: The weight was 19 g and 22 g and 18.5 g.

Q: What about the viability at 10 µM (AGS; 72 h, average of tests) of the same compound?
A: The viability at 10 µM was 28.3%.

Q: And the viability at 10 µM (AGS; 72 hours, test 0510-10 min)?
A: Its viability at 10 µM is 26.6%.

Q: And the viability at 10 µM (AGS; 72 hours, test 0512-10 min)?
A: The viability at 10 µM was 20%.

Q: What about the viability at 10 µM (AGS; 72 hours, test 0515-10 min) of the same compound?
A: Its viability at 10 µM is 52.3%.

Q: What about the viability at 10 µM (AGS; 72 hours, test 0517-10 min) of the same compound?
A: The viability at 10 µM was 14.5%.

Q: What about the “inhibitory effect on various cancer cells” value (various cancer cells) of the same compound?
A: Its value is “significant inhibitory effect and specificity”.

Q: What about the viability at 72 h, 10 µM ([2]; average of tests, read-out: survival rate (viability) of cells) of the same compound?
A: Its viability at 72 h, 10 µM is 114%.

Q: And the viability at 72 h, 10 µM ([2]; summary, kidney cell lines, read-out: Inhibitory effect)?
A: The viability at 72 h, 10 µM was 114%.

Q: And the viability at 10 µM (H1650; NCI-H1650, 10 μM, 72 hours, test 1-10 min)?
A: Its viability at 10 µM is 86.8%.

Q: And the viability at 10 µM (H1650; NCI-H1650, 10 μM, 72 hours, test 2-20 min)?
A: The viability at 10 µM was 67.5%.

Q: And the viability at 10 µM (H1650; NCI-H1650, 10 μM, 72 hours, test 3-20 min)?
A: Its viability at 10 µM is 76.8%.

Q: What about the viability at 10 µM (H1650; NCI-H1650, 10 μM, 72 hours, test 4-20 min) of the same compound?
A: Its viability at 10 µM is 75.2%.

Q: What about the viability at 10 µM (H1650; NCI-H1650, 72 h, 10 μM, Average of tests) of the same compound?
A: Its viability at 10 µM is 76.5%.

Q: And the viability at 10 µM (pancreatic cancer cells)?
A: The viability at 10 µM was 82.4%.

From patent publication US20170304228A1, “NEW INDICATION OF CINACALCET HCL PHARMACEUTICAL COMPOSITION FOR TREATING CANCER” (LAUNX BIOMEDICAL CO., LTD., priority 2014, published 2017)
